Measured values as given in patent EP0808325B1, “[…] […] SERIES FOR […] GABA RECEPTOR” (priority 1994, dated 1996).

Legend:
mice [1] = assay: loss-of-righting reflex (anesthetic activity); assay type: in vivo; parameters: unit not given here; settings: iv
Protocol: The compounds of and used in the invention can also be used for anesthetic indications at high doses. However, the preferred route of administration to induce anesthesia is intravenous (i.v.) administration. In animals, a drug's anesthetic properties is measured by the drug's ability to produce a loss-of-righting reflex. The loss-of-righting reflex is defined as the inability of an animal to right itself within 30 seconds when placed on its back. Mice were administered drug i.v. in the lateral tail vein. Following administration, mice were placed on their backs and observed for loss-of-righting reflex.

mice [2] = assay: elevated plus-maze; assay type: in vivo, N.I.H. Swiss-Webster mice; settings: IP
Excerpt: The theoretical basis for the elevated plus-maze test is similar to that of the light/dark transition test. As described by Pellow et al., J. Neurosci. Meth 14:149-167 (1985), the elevated plus-maze apparatus is designed to utilize the mice's natural aversion to open spaces. The apparatus consists of two open-arms and two enclosed-arms. The elevated plus-maze test allows for two measures of anxiety, the number of entries into the open-arms and the time spent on the open-arms, both expressed as a percentage of the total number of entries and time spent in/on both the open-arms and enclosed-arms.
Male N.I.H. Swiss-Webster mice (Harlan, Indianapolis, IN) weighing 15-20 g were housed four per cage in polyethylene cages with sawdust bedding. The colony room was environmentally controlled (22°C) with a 12 hr light/dark cycle (0600-1800 hr). Food and water were available ad libitum, except during testing. The experiments were run from 0700-1500 hr and groups were counterbalanced for time of day effects. Mice were only administered drug or vehicle once.
The method used was previously described (Lister, Psychopharmacol. 92:180-185 (1987)). The apparatus included two open arms perpendicular to two enclosed arms elevated 50 cm from the floor. Each arm was 50 cm long and the walls of the enclosed arms were 40 cm tall. The maze was made completely of black plexiglass. Incandescent 200 W light bulbs were above each of the open arms to produce a strong contrast between the open arms and the enclosed arms.
Ten minutes after an injection, the N.I.H. Swiss-Webster mice were placed in the center of the plus-maze facing an open arm. During the 5 min test period, the number of entries onto the open arms and the enclosed arms, and the time spent in the open arms and enclosed arms were measured. All four paws had to be within an arm for the dependent variable to be measured. Therefore, the time spent in the center of the maze is not counted, so the total time spent in the open arms and the enclosed arms may not equal 5 min. […]

GR complex = assay: modulation of [35S]TBPS binding in rat cerebral cortex P2 homogenate; parameters: species or system Sprague-Dawley rats; IMAX: unit not given here; settings: for IC50: concentration of compounds to inhibit 50% of control [35S]TBPS binding, 2 nM [35S]TBPS, 25°C, 90 minutes; for IMAX: maximum inhibition of [35S]TBPS binding, I* = Inactive
Procedure, shortened: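 Rat (male Sprague-Dawley) cortical P2 homogenate, 0.5 mg protein, in 50 mM Na/K phosphate pH 7.4, 200 mM NaCl, incubated 90 min at 25° C with 2 nM [35S]TBPS plus GABA and (+)bicuculline, compounds added in DMSO. Filter-bound radioactivity counted; nonspecific binding defined with […].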

[3] = test system: metrazol induced convulsions; assay: animal or person; assay type: in vivo, mice; settings: IP, 10 mg/kg
rats = assay: Geller-Seifter conflict test; assay type: in vivo, Sprague-Dawley rats
Excerpt: This animal model of human anxiety utilizes a conditioned state of conflict in rats to ascertain the anxiolytic properties of drugs. Rats are conditioned to bar press for positive reinforcement under two schedules of behavior (Geller and Seifter, Psychopharmacologia 1:482-492 (1960)). The first includes bar pressing under a […] schedule without punishment. The second component is a fixed ratio schedule with each bar press resulting in a positive reinforcement and a punishment. The punished component produces a state of conflict within the animal. […] An anxiolytic response would increase the punished responding without affecting the unpunished responding.
Male albino Sprague-Dawley rats (Charles River Labs, Wilmington, MA) weighing 250-300 g were used for conflict experiments and were kept on a restricted diet of Purina Lab Chow food pellets with water available at all times to maintain body weight at 85% of their free-feeding young adult levels. Rats were housed individually under a 12-hour light-dark cycle with lights on from 0700-1900.
The anti-anxiety (punishment-lessening) and response depressant effects of […] and […] were measured in rats by the conflict test of Geller and Seifter (1960). In this 63-min test, hungry rats perform a lever-press response to obtain a sweetened milk reward. The reinforcement schedule consists of punishment and nonpunishment components, alternating approximately every 15 min. Rats were trained in test chambers (Coulbourn instruments) with a lever mounted in one wall, a small dipper that delivered the 0.1-mL milk reward (1 part Eagle condensed : milk 2 parts water), and a metal grid floor through which the foot-shock punishment was administered. A DEC PDP 11/73 minicomputer running SKED (State Systems) was used for programming and recording.
Rates initially learned to respond on a continuous reinforcement schedule and progressed rapidly to 30-sec, 1-min, and 2-min variable interval (VI) schedules. On the continuous reinforcement schedule, rats received milk reward following every lever press; on the VI schedules, milk rewards were available at infrequent and variable intervals, eventually at an average of once every 2 min. Four 3-min "conflict" periods were then introduced on the unpunished VI baseline; the first started after 3 min of VI performance and the others were alternated between 12-min periods of VI responding. During conflict periods, which were signalled by the presentation of a light and a tone, the continuous reinforcement schedule was again in force and each lever press delivered both a milk reward and a brief ([…]) foot-shock punishment. Shock intensity was 0.2 mA initially, and.was increased daily in increments of 0.02 mA in order to gradually suppress lever pressing to 5 responses or less per conflict period. This training took 4-6 weeks, after which stable low rates of response were observed during conflict periods and stable high rates in the nonpunishment periods. Drug-induced increases in the rate of punished responses were taken as an index of antianxiety activity, while decreases in the rate of unpunished responses were taken as an index of response depression or sedation.

[4] = 50% hpbcd, 10 minutes prior to metrazol (85 mg/kg)

COC=C1CCC2C3CCC4CC(O)CCC4C3CCC12C (stereo not drawn) [3α-Hydroxy-17(20)(Z)-methoxytnethylene-19-nor-5α-androstane]
Loss-of-Righting Reflex (mice [1]; micronizing solution, 5 mg/kg): 75

CC(=O)[C@H]1CC[C@H]2[C@@H]3CC[C@@H]4C[C@@](O)(C#CCl)CC[C@]4(C)[C@H]3CC[C@]12C [3β-(Chloroethynyl)-3α-hydroxy-5β-prognan-20-one]
Loss-of-Righting Reflex (mice [1]; micronizing solution, 20 mg/kg): 100

C#C[C@@]1(O)CC[C@@]2(C)[C@H](CC[C@@H]3[C@@H]2CC[C@]2(C)[C@@H](C(=O)CO)CC[C@@H]32)C1 [3α,21-Dihydroxy-3β-ethynyl-5β-pregnan-20-one]
% Control (mice [2]; 50% hpbcd, 10 mg/kg): 162%
IC50 (GR complex; no unit printed): 216 nM
IMAX (GR complex): 104
% Protected [3, 4]: 18.8%
Loss-of-Righting Reflex (mice [1]; 20% cremophor, 10 mg/kg): 100

CC(=O)[C@H]1CC[C@H]2[C@@H]3CC[C@@H]4C[C@@](O)(C(F)(F)F)CC[C@]4(C)[C@H]3CC[C@]12C [3α-Hydroxy-3β-trifluoromethyl-5β-pregnan-20-one]
% Control (mice [2]; 50% hpbcd, 20 mg/kg): 197.6%
IC50 (GR complex; no unit printed): 211 nM
IMAX (GR complex): 98
% Protected [3, 4]: 62.5%
Geller/Seifter (% of control) (rats; sc, 50% hpbcd, 4 mg/kg): 663.2 % of control

C[C@]12CC[C@](O)(C(F)(F)F)C[C@H]1CC[C@@H]1[C@@H]2CC[C@]2(C)[C@@H](C(=O)CO)CC[C@@H]12 [3α,21 Dihydroxy-3β-trifluoromethyl-5β-pregnan-20-one]
% Control (mice [2]; 50% hpbcd, 10 mg/kg): 237%
IC50 (GR complex; no unit printed): 354 nM
IMAX (GR complex): 102
% Protected [3, 4]: 50%
Geller/Seifter (% of control) (rats; sc, 50% hpbcd, 16 mg/kg): 982.4 % of control

CC(=O)C1=CC[C@H]2[C@@H]3CC[C@H]4C[C@](C)(O)CC[C@]4(C)[C@H]3CC[C@]12C [3α-Hydroxy-3β-methyl-5α-pregn-16-en-20-one]
Loss-of-Righting Reflex (mice [1]; micronizing solution, 50 mg/kg): 100

CC(=O)[C@H]1CC[C@H]2[C@@H]3CC[C@H]4C[C@H](O)CC[C@]4(C)C3=CC[C@]12C [3α-Hydroxy-5α-pregn-9-en-20-one]
Loss-of-Righting Reflex (mice [1]; micronizing solution, 10 mg/kg): 100

C[C@]12CC[C@](O)(C(F)(F)F)C[C@H]1CC[C@@H]1[C@@H]2CC[C@]2(C)[C@@H](C(=O)COC(=O)CCC(=O)[O-])CC[C@@H]12.[Na+] [3α,21-Dihydroxy-3β-trifluoromethyl-5β-pregnan-20-one, 21-hemisuccinate, sodium salt]
% Control (mice [2]; water, 20 mg/kg): 172.8%
IC50 (GR complex; unit inferred, sodium salt): 712 nM
IMAX (GR complex): 99
% Protected ([3]; water): 62.5%
Geller/Seifter (% of control) (rats; po, water, 8 mg/kg): 840.0 % of control

CC(=O)[C@H]1CC[C@H]2[C@@H]3CC[C@H]4C[C@](C)(O)CC[C@]4(C)[C@H]3CC[C@]12C [3α-hydroxy-3β-methyl-5α-pregnan-20-one]
% Control (mice [2]; 50% hpbcd, 5 mg/kg): 165.6%
IC50 (GR complex; no unit printed): 62 nM
IMAX (GR complex): 97
% Protected [3, 4]: 100%
Geller/Seifter (% of control) (rats; sc, 50% hpbcd, 4 mg/kg): 1384.6 % of control

CC(=O)[C@H]1CC[C@H]2[C@@H]3CC[C@@H]4C[C@](C)(O)CC[C@]4(C)[C@H]3CC[C@]12C [3α-hydroxy-3β-methyl-5β-pregnan-20-one]
IC50 (GR complex; no unit printed): 37 nM
IMAX (GR complex): 98
% Protected ([3]; micro soln.): 70%
Loss-of-Righting Reflex (mice [1]; micronizing solution, 2.5 mg/kg): 100

CC(=O)[C@H]1CC[C@H]2[C@@H]3CC[C@H]4C[C@H](O)[C@@H](F)C[C@]4(C)[C@H]3CC[C@]12C [2β-Fluoro-3α-hydroxy-5α-pregnan-20-one]
Loss-of-Righting Reflex (mice [1]; micronizing solution, 5 mg/kg): 100

CC(=O)[C@H]1CC[C@H]2[C@@H]3CC[C@H]4C[C@@](O)(CF)CC[C@]4(C)[C@H]3CC[C@]12C [3β-Fluoromethyl-3α-hydroxy-5α-pregnan-20-one]
% Control (mice [2]; 50% hpbcd, 20 mg/kg): 150.7%
IC50 (GR complex; no unit printed): 200 nM
IMAX (GR complex): 77
% Protected [3, 4]: 14.3%
Geller/Seifter (% of control) (rats; sc, 50% hpbcd, 8 mg/kg): 1005 % of control

CCO[C@H]1C[C@@]2(C)[C@@H](CC[C@@H]3[C@@H]2CC[C@]2(C)[C@@H](C(C)=O)CC[C@@H]32)C[C@@H]1O [2β-Ethoxy-3α-hydroxy-5α-pregnan-20-one]
Loss-of-Righting Reflex (mice [1]; 20% cremophor, 5 mg/kg): 100

CC(=O)[C@H]1CC[C@H]2[C@@H]3CC[C@@H]4C[C@@](O)(C(F)(F)F)CC[C@@H]4[C@H]3CC[C@]12C [3α-Hydroxy-3β-trifluoromethyl-5β-19-norpregnan-20-one]
% Control (mice [2]; 50% hpbcd, 10 mg/kg): 173.8%
IC50 (GR complex; no unit printed): 76 nM
IMAX (GR complex): 100
% Protected [3, 4]: 100%
Geller/Seifter (% of control) (rats; sc, 50% hpbcd, 4 mg/kg): 1073.1 % of control

CC(=O)OCC(=O)[C@H]1CC[C@H]2[C@@H]3CC[C@@H]4C[C@@](O)(C(F)(F)F)CC[C@]4(C)[C@H]3CC[C@]12C [3α,21-Dihydroxy-3β-trifluoromethyl-5β-pregnan-20-one, 21-acetate]
% Control (mice [2]; 50% hpbcd, 5 mg/kg): 143.3%
IC50 (GR complex; no unit printed): 370 nM
IMAX (GR complex): 88
% Protected [3, 4]: 62.5%
Geller/Seifter (% of control) (rats; sc, 50% hpbcd, 8 mg/kg): 882.8 % of control

COCCC(=O)[C@H]1CC[C@H]2[C@@H]3CC[C@H]4C[C@](C)(O)CC[C@]4(C)[C@H]3CC[C@]12C [3α-Hydroxy-3β-methyl-21-methoxymethyl-5α-pregnan-20-one]
Loss-of-Righting Reflex (mice [1]; micronizing solution, 20 mg/kg): 100

C#C[C@@]1(O)CC[C@@]2(C)[C@H](CC[C@@H]3[C@@H]2CC[C@]2(C)[C@@H](C(C)=O)CC[C@@H]32)C1 [3β-ethynyl-3α-hydroxy-5β-pregnan-20-one, 3β-Ethynyl-3α-hydroxy-5β-pregnan-20-one]
% Control (mice [2]; 50% hpbcd, 1 mg/kg): 186.6%
IC50 (GR complex; no unit printed): 39 nM
IMAX (GR complex): 101
% Protected [3, 4]: 100%
Loss-of-Righting Reflex (mice [1]; 10% hpbcd, 30 mg/kg): 100
Geller/Seifter (% of control) (rats; sc, 50% hpbcd, 2 mg/kg): 751.1 % of control
